Patent US10752900B2, “Oligonucleotides for modulating gene expression and uses thereof” (BIOGENERA S.P.A., priority 2012, dated 2020)

These substances were tested on MYCN gene (assay: QT-PCR, MYCN mRNA in SKNBE2c cells). Settings: Table 6.
Format: cell-based, human
Procedure: For the purpose of assessing the ability of the oligonucleotides of the present invention to modulate the expression of the target genes, their ability to reduce the quantity of messenger RNA was analyzed using the Real-Time PCR technique. For this purpose, use was made of 24-well plates, which were seeded with 5.0×10^4 cells with 0.3 ml of OPTI-MEM (GIBCO BRL) medium, 4% FBS and 2 mM L-glutammine (experiments in triplicate) per well. The cells were incubated for 24 hours at 37° C., in an atmosphere containing 5% CO2 to permit adherence to the base of the wells. For each well, the oligonucleotides were analyzed at the following final concentrations: • the antisense oligonucleotides siRNA and siRNA gapmer (i.e. the oligonucleotides containing one or more monomers of chemically modified nucleic acids at the 3' or 5' end, while in the central portion they have monomers of nucleic acids that have not been modified or have been modified at the level of the phosphodiester bond as a phosphorothioate bond) were used at 200 nM; • the antisense oligonucleotides containing phosphorothioate DNA monomers, the RNA antigene oligonucleotides (agRNA) and the oligonucleotides containing DNA monomers and LNA monomers were used at 10 μM; • the morpholino oligonucleotides were used at a concentration of 1 μM, and • the PNA oligonucleotides were administered at a concentration of 1 μM. The cells were treated with the oligonucleotides, adding FBS up to 4% 6 hours after administration of the same. After 24 hours the total RNA was extracted from each well and purified using the RNeasy Mini Kit (QIAGEN). Assays were performed on 8 cell lines obtained from 5 different human tumours which are correlated with MYCN expression, i.e.: • as a neuroblastoma model use was made of the cell lines Kelly, IMR-32 (where the MYCN gene is amplified and superexpressed) and SKNBE2c and LAN1 (where the MYCN gene is amplified and superexpressed and the p53 gene is mutated); • as a rabdomiosarcoma model use was made of the cell line RH30, where the MYCN gene is amplified and superexpressed; • as a Wilms' tumour model use was made of the cell line WiT49, where the MYCN gene is amplified and superexpressed; • as a retinoblastoma model use was made of the cell line Y79, where the MYCN gene is amplified and superexpressed; and • as a model of small cell lung cancer use was made of the cell line H69 where the MYCN gene is amplified and superexpressed. As a control, use was made of the same cell lines as listed above treated with sterile water instead of oligonucleotides. Each RNA sample was quantified (in duplicate) using a NanoDrop ND-1000 spectrophotometer (NanoDrop Technologies). The first strand of cDNA was produced using the cDNA Synthesis Kit for RT-PCR (Roche). For the cDNA synthesis reaction a total of 1 μg of RNA was used. For the real-time PCR, 10 ng of cDNA in a final volume of 20 μl was used with SYBR Green Master Mix 2× (Applied Biosystems) (3 identical experiments were conducted in triplicate). Two housekeeping genes were used as positive controls: GAPDH and beta-actin (ACTB). The conditions of the QT-PCR reaction were: 10 min at 95° C., 20 sec at 95° C., and 30 sec at 60° C., for 50 cycles. The PNAs having SEQ ID NO: 1-12 were also tested on different cell lines which overexpress MYCN (Kelly, SKNBE2c, RH30, […] 1 and H69). The results are shown in Table 6 and confirm the selectivity and specificity of the inhibition effect of the PNAs on the product of protein translation of the MYCN gene.

Substance | SKNBE2c % mRNA [%]
SEQ ID NO: 1: PNA ATGCCGGGCATGATCT against MYCN; subject of patent EP 1618195, control sequence used for comparison (all peptide nucleic acid (PNA)) [reference compound] | 41
SEQ ID NO: 2: PNA antigene oligonucleotide GGGTGGATGCGGGGGG directed against MYCN (PNA backbone, chemistry not fully specified) | 75
SEQ ID NO: 3: PNA antigene oligonucleotide GATGCGGGGGGCTCCT directed against MYCN (PNA backbone, chemistry not fully specified) | 68
SEQ ID NO: 4: PNA antigene oligonucleotide GTCGGCGGGAGGTAAG directed against MYCN (PNA backbone, chemistry not fully specified) | 60
SEQ ID NO: 5: PNA antigene oligonucleotide GCTGGGTGGATGCGGG directed against MYCN (PNA backbone, chemistry not fully specified) | 59
SEQ ID NO: 6: PNA antigene oligonucleotide TGGACGCGCTGGGTGG directed against MYCN (PNA backbone, chemistry not fully specified) | 62
SEQ ID NO: 7: PNA antigene oligonucleotide CGCGCTGGGTGGATGC directed against MYCN (all peptide nucleic acid (PNA)) | 60
SEQ ID NO: 8: PNA antigene oligonucleotide GTCTGGACGCGCTGGG directed against MYCN (all peptide nucleic acid (PNA)) | 62
SEQ ID NO: 9: PNA antigene oligonucleotide CCCTGCAGTCGGCGGG directed against MYCN (all peptide nucleic acid (PNA)) | 58
SEQ ID NO: 10: PNA antigene oligonucleotide CGGCCGCGGGCCGCCA directed against MYCN (PNA backbone, chemistry not fully specified) | 41
SEQ ID NO: 11: PNA antigene oligonucleotide GGGAACTGTGTTGGAG directed against MYCN (PNA backbone, chemistry not fully specified) | 40
SEQ ID NO: 12: PNA antigene oligonucleotide TGTCTGGACGCGCTGG directed against MYCN (all peptide nucleic acid (PNA)) | 40

Each substance was assayed on human and mouse neuroblastoma tumour cell lines (SMS-KAN, LAN 1, IMR-32, SMS-KCN, Kelly, NHO2A, SKNBE2c) (assay: not given). Settings: not given.
Format: cell-based

Substance | effect in terms of inhibiting cell proliferation in combination with chemotherapeutic agents
SEQ ID NO: 1: PNA ATGCCGGGCATGATCT against MYCN; subject of patent EP 1618195, control sequence used for comparison (all peptide nucleic acid (PNA)) [reference compound] | synergic effect
